Source: patent publication US20250179027A1, “CYCLOALKYL OR HETEROCYCLYL SUBSTITUTED HETEROARYL COMPOUND, AND COMPOSITION AND USE THEREOF” (Shenzhen TargetRx, Inc., priority 2022, published 2025)

What was measured:
Format in all cases: biochemical
Details in all cases: HTRF TK kit
BTK kinase = target: T1, BTK kinase (Homo sapiens, UniProt Q06187); test: HTRF kinase activity inhibition assay, BTK
T1 construct: purchased Invitrogen PV3587
Description: (§1) In this assay, the HTRF TK Kit (Catalog No. 62TKOPEC) provided by Cisbio was used to detect the inhibitory activity of compounds on BTK kinase and BTK C481S kinase and the selectivity of compounds relative to EGFR, ITK and TEC kinases.
(§2) Reagents and consumables: BTK kinase (Invitrogen, Catalog No. PV3587), BTK C481S (Carna, Product No. 08-547), ITK (Carna, Product No. 08-181), EGFR (Carna, Product No. 08-115), TEC (Carna, Product No. 08-182), HTRF-TK kit (Cisbio, Product No. 62TKOPEC), MgCl2 (Sigma, Product No. M1028), MnCl2 (Sigma, Product No. M1787), DTT (Sigma, Product No. D0632), ATP (Sigma, Product No. A7699-1 g), DMSO (Sigma, Product No. D2650), 384-well plate (PE, Product No. 6008280).
(§3) The entire operation steps were carried out on ice, and the total reaction volume was 10 μL. The compound (4 μL), substrate and ATP (4 μL), kinase (2 μL) were added in sequence to a 384-well plate, and shaked for 30 seconds. After an appropriate time at room temperature, the detection reagent was added. After 1 hour at room temperature, the plate was detected with a microplate reader. The specific steps were as follows: • a) 1× kinase buffer solution required for kinase detection was calculated according to the amount of the detection compound, and prepared as needed; • b) compounds with 2.5×working concentration were prepared, the 100 times gradient concentration solution of compounds was diluted by 4 μL to the desired concentration, mixed well, and added to each well at 4 μL per well; • c) 5×working concentration of substrate and ATP were prepared, mixed in a ratio of 1:1 before adding to a 384-well plate, and added to each well at 4 μL per well; • d) 5×working concentration of kinase was prepared, and 2 μL was added to each well; • e) the plate was shaked on a microplate oscillator for 30 seconds, sealed with a sealing membrane, and reacted at room temperature for an appropriate time; • f) 4×working concentrations of streptavidin XL-665 and TK antibody-cryptate compound were prepared, mixed in a ratio of 1:1 before adding to a 384-well plate, and added to each well at 10 μL per well; • g) the plate was read after reacting at room temperature for 1 hour; • h) the wells with only substrate, ATP and 1% DMSO added but no kinase were blank control wells, and the wells with only substrate, ATP, 1% DMSO and kinase were positive control wells.
(§4) Readings: The values of 620 nm (cryptate) and 665 nm (XL665) were read with a BioTek Synerg Neo2 microplate reader, the ratio of 665/620 per well was calculated, and the data were exported. Data analysis: IC50 was calculated using GraphPad Prism 7.0 software. The following nonlinear fitting formula was used to obtain the IC50 (half inhibitory concentration) of compounds:
(§5) [formula] • X: Compound concentration log value • Y: Inhibition rate (% inhibition)
(§6) The kinase inhibition rate (% inhibition rate) was calculated as: […]

BTK C481S kinase = target: T2, BTK C481S kinase (Homo sapiens, UniProt Q06187, C481S); test: HTRF kinase activity inhibition assay, BTK C481S
T2 construct: purchased Carna 08-547
T2 sequence (Q06187 whole entry C481S): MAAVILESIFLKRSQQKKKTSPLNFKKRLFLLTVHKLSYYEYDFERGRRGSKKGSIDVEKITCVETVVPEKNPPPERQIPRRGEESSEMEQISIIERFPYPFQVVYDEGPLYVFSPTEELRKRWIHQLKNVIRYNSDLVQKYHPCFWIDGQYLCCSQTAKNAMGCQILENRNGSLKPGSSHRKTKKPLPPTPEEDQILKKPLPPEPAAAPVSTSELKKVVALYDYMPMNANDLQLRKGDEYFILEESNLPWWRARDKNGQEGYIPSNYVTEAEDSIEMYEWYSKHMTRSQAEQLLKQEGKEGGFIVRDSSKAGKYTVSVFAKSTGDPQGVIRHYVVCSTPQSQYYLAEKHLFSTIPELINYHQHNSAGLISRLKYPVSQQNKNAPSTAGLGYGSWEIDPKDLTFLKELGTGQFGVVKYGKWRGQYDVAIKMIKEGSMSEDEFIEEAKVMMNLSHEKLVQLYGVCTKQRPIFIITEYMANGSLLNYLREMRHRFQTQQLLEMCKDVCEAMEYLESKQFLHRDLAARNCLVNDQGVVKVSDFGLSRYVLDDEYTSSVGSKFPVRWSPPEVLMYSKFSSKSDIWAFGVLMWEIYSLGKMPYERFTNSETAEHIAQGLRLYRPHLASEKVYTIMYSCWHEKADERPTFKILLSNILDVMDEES
Description: as §1, §2, §3, §4, §5, §6

ITK = target: T3, ITK (Homo sapiens, UniProt Q08881); test: HTRF kinase activity inhibition assay, ITK
T3 construct: purchased Carna 08-181
T3 sequence (Q08881 1-620): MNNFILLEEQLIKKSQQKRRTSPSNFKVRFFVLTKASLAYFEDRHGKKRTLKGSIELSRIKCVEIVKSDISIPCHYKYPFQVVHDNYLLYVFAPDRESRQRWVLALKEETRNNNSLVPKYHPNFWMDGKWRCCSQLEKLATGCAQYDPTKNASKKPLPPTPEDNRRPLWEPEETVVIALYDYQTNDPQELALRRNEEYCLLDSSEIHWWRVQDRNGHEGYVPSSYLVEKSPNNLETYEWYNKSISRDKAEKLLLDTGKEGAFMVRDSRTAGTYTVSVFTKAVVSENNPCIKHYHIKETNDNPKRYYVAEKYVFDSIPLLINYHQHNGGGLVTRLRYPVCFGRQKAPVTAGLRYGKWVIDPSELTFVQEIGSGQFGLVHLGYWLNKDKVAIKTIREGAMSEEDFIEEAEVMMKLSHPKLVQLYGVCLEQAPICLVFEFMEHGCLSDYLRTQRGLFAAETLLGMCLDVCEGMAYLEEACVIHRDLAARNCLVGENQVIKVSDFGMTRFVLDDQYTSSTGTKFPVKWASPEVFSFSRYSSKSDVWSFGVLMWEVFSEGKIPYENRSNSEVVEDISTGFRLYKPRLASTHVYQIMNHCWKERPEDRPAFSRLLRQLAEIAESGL
Description: as §1, §2, §3, §4, §5, §6

TEC = target: T4, TEC (Homo sapiens, UniProt P42680); test: HTRF kinase activity inhibition assay, TEC
T4 construct: purchased Carna 08-182
T4 sequence (P42680 1-631): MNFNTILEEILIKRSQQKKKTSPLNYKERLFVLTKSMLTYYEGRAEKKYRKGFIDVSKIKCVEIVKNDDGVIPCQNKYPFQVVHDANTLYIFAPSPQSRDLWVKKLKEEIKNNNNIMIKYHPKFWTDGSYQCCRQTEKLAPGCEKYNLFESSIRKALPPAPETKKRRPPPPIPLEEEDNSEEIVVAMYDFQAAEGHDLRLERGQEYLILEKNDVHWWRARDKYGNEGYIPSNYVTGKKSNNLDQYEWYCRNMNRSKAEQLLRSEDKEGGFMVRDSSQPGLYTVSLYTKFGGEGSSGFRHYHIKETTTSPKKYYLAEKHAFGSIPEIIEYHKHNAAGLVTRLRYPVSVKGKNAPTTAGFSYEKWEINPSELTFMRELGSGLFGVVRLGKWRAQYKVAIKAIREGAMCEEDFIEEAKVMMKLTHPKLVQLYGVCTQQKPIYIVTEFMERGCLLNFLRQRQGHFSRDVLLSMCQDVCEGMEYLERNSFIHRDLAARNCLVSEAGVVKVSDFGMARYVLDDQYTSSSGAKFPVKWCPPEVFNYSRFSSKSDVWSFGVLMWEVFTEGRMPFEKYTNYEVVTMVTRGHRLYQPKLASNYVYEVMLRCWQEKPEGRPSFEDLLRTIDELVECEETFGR
Description: as §1, §2, §3, §4, §5, §6

T1 sequence (Q06187 whole entry): as the sequence (Q06187 whole entry C481S) above, with S481C counted along it

COc1ccc(F)cc1C(=O)NCc1ccc(-c2nn(C3CCCC(O)C3)c3ncnc(N)c23)cc1 (stereo not shown) [Example 4]
IC50 (BTK kinase): ≤ 10 nM | IC50 (BTK C481S kinase): ≤ 10 nM | IC50 (ITK): > 10000 nM | IC50 (TEC): 100 to 1000 nM

COc1ccc(F)cc1C(=O)NCc1ccc(-c2nn(C3CCC(CO)OC3)c3ncnc(N)c23)cc1 (single isomer, unassigned) [Example 18, N-(4-(4-amino-1-(6-(hydroxymethyl)tetrahydro-2H-pyran-3-yl)-1H-pyrazolo[3,4-d]pyrimidin-3-yl)benzyl)-5-fluoro-2-methoxybenzamide]
IC50 (BTK kinase): ≤ 10 nM | IC50 (BTK C481S kinase): ≤ 10 nM | IC50 (ITK): > 10000 nM | IC50 (TEC): 100 to 1000 nM

COc1ccc(F)cc1C(=O)NCc1ccc(-c2nc(C3CCCC(O)C3)n3ccnc(N)c23)cc1 (stereo not shown) [Example 20, N-(4-(8-amino-3-(3-hydroxycyclohexanyl)imidazo[1,5-a]pyrazin-1-yl)benzyl)-5-fluoro-2-methoxybenzamide]
IC50 (BTK kinase): ≤ 10 nM | IC50 (BTK C481S kinase): 10 to 50 nM | IC50 (ITK): > 10000 nM | IC50 (TEC): 100 to 1000 nM

COc1ccc(F)cc1C(=O)NCc1ccc(-c2nn(C3CCCC(O)C3)c3ncnc(N)c23)cc1 (single isomer, unassigned) [Example 7]
IC50 (BTK C481S kinase): ≤ 10 nM | IC50 (ITK): > 10000 nM | IC50 (TEC): 100 to 1000 nM

COc1ccc(F)cc1C(=O)NCc1ccc(-c2cc(C3CCC(CO)OC3)n3ncnc(N)c23)cc1 (single isomer, unassigned) [Example 60, N-(4-(4-amino-7-(6-(hydroxymethyl)tetrahydro-2H-pyran-3-yl)pyrrolo[2,1-f][1,2,4]triazin-5-yl)benzyl)-5-fluoro-2-methoxybenzamide]
IC50 (BTK kinase): ≤ 10 nM | IC50 (BTK C481S kinase): ≤ 10 nM | IC50 (ITK): > 10000 nM | IC50 (TEC): 100 to 1000 nM

COc1ccc(F)cc1C(=O)NCc1ccc(-c2nn([C@H]3CC[C@H](CO)CC3)c3ncnc(N)c23)cc1 [Example 56, trans-N-(4-(4-amino-1-((1R,4R)-4-(hydroxymethyl)cyclohexyl)-1H-pyrazolo[3,4-d]pyrimidin-3-yl)benzyl)-5-fluoro-2-methoxybenzamide]
IC50 (BTK kinase): ≤ 10 nM | IC50 (BTK C481S kinase): ≤ 10 nM | IC50 (ITK): > 10000 nM | IC50 (TEC): 100 to 1000 nM

COc1ccc(F)cc1C(=O)NCc1ccc(-c2nc(C3CCCC(O)C3)n3ccnc(N)c23)cc1 (single isomer, unassigned) [Example 22, N-(4-(8-amino-3-(3-hydroxycyclohexanyl)imidazo[1,5-a]pyrazin-1-yl)benzyl)-5-fluoro-2-methoxybenzamide]
IC50 (BTK kinase): ≤ 10 nM | IC50 (BTK C481S kinase): ≤ 10 nM | IC50 (ITK): > 10000 nM | IC50 (TEC): 100 to 1000 nM

COc1ccc(F)cc1C(=O)NCc1ccc(-c2nn(C3CCC(O)CC3)c3ncnc(N)c23)cc1 [Example 29, N-(4-(4-amino-1-((1R,4R)-4-hydroxycyclohexyl)-1H-pyrazolo[3,4-d]pyrimidin-3-yl)benzyl)-5-fluoro-2-methoxybenzamide]
IC50 (BTK kinase): ≤ 10 nM | IC50 (BTK C481S kinase): ≤ 10 nM | IC50 (ITK): > 10000 nM | IC50 (TEC): 100 to 1000 nM

COc1ccc(F)cc1C(=O)NCc1ccc(-c2nn([C@H]3CC[C@@H](O)CC3)c3ncnc(N)c23)cc1 [Example 30, N-(4-(4-amino-1-((1S,4S)-4-hydroxycyclohexyl)-1H-pyrazolo[3,4-d]pyrimidin-3-yl)benzyl)-5-fluoro-2-methoxybenzamide]
IC50 (BTK kinase): ≤ 10 nM | IC50 (BTK C481S kinase): ≤ 10 nM | IC50 (ITK): > 10000 nM | IC50 (TEC): 100 to 1000 nM

COc1ccc(F)cc1C(=O)NCc1ccc(-c2cc(C3CCC(CO)OC3)n3ncnc(N)c23)cc1 (single isomer, unassigned) [Example 59, N-(4-(4-amino-7-(6-(hydroxymethyl)tetrahydro-2H-pyran-3-yl)pyrrolo[2,1-f][1,2,4]triazin-5-yl)benzyl)-5-fluoro-2-methoxybenzamide]
IC50 (BTK kinase): 10 to 50 nM | IC50 (BTK C481S kinase): 10 to 50 nM | IC50 (ITK): > 10000 nM | IC50 (TEC): 1000 to 10000 nM

COc1ccc(F)cc1C(=O)NCc1ccc(-c2nn([C@H]3CC[C@@H](CO)CC3)c3ncnc(N)c23)cc1 [Example 55, cis-N-(4-(4-amino-1-((1S,4S)-4-(hydroxymethyl)cyclohexyl)-1H-pyrazolo[3,4-d]pyrimidin-3-yl)benzyl)-5-fluoro-2-methoxybenzamide]
IC50 (BTK kinase): ≤ 10 nM | IC50 (BTK C481S kinase): ≤ 10 nM | IC50 (ITK): > 10000 nM | IC50 (TEC): 100 to 1000 nM

COc1ccc(F)cc1C(=O)NCc1ccc(-c2nn(C3CCCC(O)C3)c3ncnc(N)c23)cc1 (single isomer, unassigned) [Example 5]
IC50 (BTK kinase): 10 to 50 nM | IC50 (BTK C481S kinase): ≤ 10 nM | IC50 (ITK): > 10000 nM | IC50 (TEC): 100 to 1000 nM

COc1ccc(F)cc1C(=O)NCc1ccc(-c2nn(C3CCCC(O)C3)c3ncnc(N)c23)cc1 (single isomer, unassigned) [Example 6]
IC50 (BTK kinase): ≤ 10 nM | IC50 (BTK C481S kinase): ≤ 10 nM | IC50 (ITK): > 10000 nM | IC50 (TEC): 100 to 1000 nM

COc1ccc(F)cc1C(=O)NCc1ccc(-c2nn(C3CCC(O)C3)c3ncnc(N)c23)cc1 (single isomer, unassigned) [Example 31, N-(4-(4-amino-1-(3-hydroxycyclopentanyl)-1H-pyrazolo[3,4-d]pyrimidin-3-yl)benzyl)-5-fluoro-2-methoxybenzamide]
IC50 (BTK kinase): ≤ 10 nM | IC50 (BTK C481S kinase): ≤ 10 nM | IC50 (ITK): > 10000 nM | IC50 (TEC): 100 to 1000 nM

COc1ccc(F)cc1C(=O)NCc1ccc(-c2nn(C3CCCC(O)C3)c3ncnc(N)c23)cc1 (single isomer, unassigned) [Example 8]
IC50 (BTK C481S kinase): 10 to 50 nM | IC50 (ITK): > 10000 nM | IC50 (TEC): 1000 to 10000 nM
